target: T1, 17-beta-hydroxysteroid dehydrogenase type 1 (Homo sapiens, UniProt P14061)
T1 sequence (P14061 whole entry): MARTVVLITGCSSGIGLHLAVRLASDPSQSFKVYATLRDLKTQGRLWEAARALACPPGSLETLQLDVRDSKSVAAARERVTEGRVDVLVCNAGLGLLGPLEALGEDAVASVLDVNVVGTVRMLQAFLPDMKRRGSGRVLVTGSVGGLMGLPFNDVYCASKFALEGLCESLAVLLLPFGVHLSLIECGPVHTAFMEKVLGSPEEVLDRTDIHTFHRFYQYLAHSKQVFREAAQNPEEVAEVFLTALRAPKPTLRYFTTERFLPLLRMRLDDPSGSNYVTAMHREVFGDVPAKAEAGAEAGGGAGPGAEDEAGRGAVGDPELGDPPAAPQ

Row | IC50 [nM] | SMILES
1 | 23 | N#Cc1cccc(S(=O)(=O)Nc2cccc(-c3ccc(C(=O)c4cccc(O)c4)s3)c2)c1
2 | 35 | COc1cccc(S(=O)(=O)Nc2cccc(-c3ccc(C(=O)c4cccc(O)c4)s3)c2)c1
3 | 89 | O=C(c1ccc(F)c(O)c1)c1cc2cc(O)ccc2s1
4 | 12 | Cc1ccc(S(=O)(=O)Nc2cccc(-c3ccc(C(=O)c4cccc(O)c4)s3)c2)cc1
5 | 69 | O=C(c1cccc(O)c1)c1ccc(-c2cccc(O)c2)s1
6 | 21 | N#Cc1cccc(S(=O)(=O)Nc2cccc(-c3c(O)ccc4cc(-c5cccc(O)c5)ccc34)c2)c1
7 | 46 | Cc1ccc(C(=O)c2ccc(-c3cccc(O)c3)s2)cc1O
8 | 56 | N#Cc1ccc(S(=O)(=O)Nc2cccc(-c3ccc(C(=O)c4cccc(O)c4)s3)c2)cc1
9 | 33 | O=C(Nc1cccc(-c2ccc(C(=O)c3cccc(O)c3)s2)c1)c1cccc(O)c1
10 | 169 | O=C(c1cccc(O)c1)c1ccc(-c2ccc(NS(=O)(=O)c3ccc(Br)cc3OC(F)(F)F)cc2)s1
11 | 12 | O=C(c1cccc(O)c1)c1cc2ccc(O)cc2s1
12 | 17 | Cc1ccccc1S(=O)(=O)Nc1cccc(-c2ccc(C(=O)c3cccc(O)c3)s2)c1
13 | 38 | O=C(c1ccc(C(F)(F)F)c(O)c1)c1ccc(-c2cccc(O)c2)s1

Source: ChEMBL document CHEMBL3627664, “Towards the evaluation in an animal disease model: Fluorinated 17β-HSD1 inhibitors showing strong activity towards both the human and the rat enzyme” (Eur J Med Chem, 2015)
